The record followed here is PMC9313812, “The Pseudo‐Natural Product Rhonin Targets RHOGDI” (Angewandte Chemie (International Ed. in English), 2022).

One assay concerns the target T1, RHOGDI1 (Homo sapiens, UniProt P52565).
T1 construct: GST; made in house; host or cells: E. coli
Kind of assay: Catch-and-release proteomics with lysine-reactive probe STPyne. Conditions: 100 µM compound, 30 µM STPyne, HEK293T lysate. The format is binding. How it is done: Supplementary Table S11: Extracted list of STPyne PC cleaved RHOGDI peptides identified by catch-and-release proteomics. HEK293T lysate overexpressing RHOGDI-F was treated with 100 µM Rhonin or DMSO, followed by 30 µM STPyne. Asterisks indicate […]
(also on this page, place not known: S 11: catch -and-release RHOGDI -F DMS O, Modified lysine position Average ratio intensity STPyne-Rhonin-100 µM/DMSO SD ratio intensity STPyne-Rhonin-100 µM/DMSO 15) […]
(1 picture or pasted object on this page, not shown here)
Samples were acidified to a final concentration of 5% acetic acid, desalted over a self-packed C18 spin column, and dried. Peptides were resuspended in water with 0.1 % formic acid (FA) and analyzed using EASY-nLC 1200 nano-UHPLC coupled to Q Exactive HF-X Quadrupole-Orbitrap mass spectrometer (Thermo Scientific). The chromatography column consisted of a 45 cm long, 75 μm i.d. microcapillary capped by a 5 μm tip and packed with ReproSil -Pur 120 C18-AQ 2.4 μm beads (Dr. Maisch GmbH). LC solvents were 0.1 % FA in water (Buffer A) and 0.1 % FA in 90 % MeCN: 10 % water (Buffer B). […] The MS data was analyzed with MaxQuant[11] and searched against the human proteome (Uniprot), a common list of contaminants (included in MaxQuant) and the amino acid sequence of recombinant RHOGDI. […]

In assay [1] the target is T2, RHOGDI1-mediated extraction of RHOA (Homo sapiens, UniProt P52565).
T2 construct: made in house; host or cells: RHOGDI1: E. coli; prenylated RHOA: insect cells (TNAO38)
Put plainly: Liposome sedimentation assay: displacement of prenylated GDP-bound RHOA by GST-RHOGDI1. Conditions: 50 μM compound. The format is biochemical. Here is the method:
Supplementary Figure S4. Compound 7a impairs RHOGDI1 function. (a) Assay setup for the liposome sedimentation assay. (b) Displacement of prenylated GDP‐bound RAC1 from synthetic liposomes by GST-RHOGDI1 in the presence or absence of 50 μM 7a was measured using liposome floatation assay. Data is representative of three independent experiments.
Liposome-containing phase represented by fluorescent colour as result of 5% fluorescent NDB-PE was analysed by Western blotting. Data are representatives of three independent […]
experiments. (c-d) Displacement of prenylated
GDP‐bound RHO GTPases (RHOA and CDC42) from synthetic liposomes by GST‐RHOGDI1 […]
liposome sedimentation assay. Data is representative of three independent experiments. P: […]
Liposome sedimentation assay
Liposomes were prepared by self-assembly of the lipids (500 μg) containing 20% (w/w) phosphatidylethanolamine, 45% (w/w) phosphatidylcholine, 20% (w/w) phosphatidylserine, 10% (w/w) cholesterol, and 5% (w/w) phosphatidylinositol 4,5-bisphosphate. […] The resulting pellet and supernatant fractions were collected and analyzed by immunoblotting. […]
The resulting samples were centrifuged at 140000 x g for 1 h at 4 °C. The upper liposome‐ containing phase (detected by fluorescent NDB‐PE) was collected and analyzed by […]

T1 sequence (P52565 whole entry): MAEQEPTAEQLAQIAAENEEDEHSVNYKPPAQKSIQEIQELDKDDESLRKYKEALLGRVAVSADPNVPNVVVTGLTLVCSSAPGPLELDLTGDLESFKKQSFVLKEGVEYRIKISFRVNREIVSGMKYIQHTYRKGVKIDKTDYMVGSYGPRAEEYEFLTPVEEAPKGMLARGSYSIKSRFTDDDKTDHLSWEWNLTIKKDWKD
T2 sequence (P52565 whole entry): as above

For `COC(=O)C1(C(CC(=O)c2cccnc2)c2ccccc2)N=C(c2ccc(Br)cc2)C2C(=O)N(C)C(=O)C21` (centres unmarked) [7l], on RHOGDI1, the “STPyne labeling of RHOGDI1 lysines in presence of compound (in words)” value was “lysines 186 and 199 in RHOGDI1 were less efficiently labeled”.

Turning to `COC(=O)C1(C(CC(=O)c2ccccc2)c2ccccc2)N=C(c2ccc(Br)cc2)C2C(=O)N(C)C(=O)C21` (centres unmarked) [7a], the “Inhibition of RHOGDI1-mediated extraction of RHOA (in words)” value in assay [1] was “inhibited”.
